Measurements: patent publication US6858718B1, “Hydrogen production” (Melis Energy, priority 2001, dated 2005)
Entries after “also recorded” stand apart in the source; their conditions may differ. Read-outs that look alike come from different tables or passages of the source.

Columns and labels:
[1] = test system: iron hydrogenase from S. obliquus; assay: Biochemical data of purified iron hydrogenase, hydrogen evolution assay with reduced methyl viologen; parameters: species or system Scenedesmus obliquus
Description: (§1) The in vitro hydrogenase activity was measured by using a Hewlett Packard (HP 5890, Series II) gas chromatograph, equipped with a thermal conductivity detector and a molecular sieve column. Methyl viologen reduced by sodium dithionite was used as an electron donor. 1 unit is defined as the amount of hydrogenase evolving 1 mmol of molecular hydrogen (H2) per minute at 25° C.
40-liter cultures of Scenedesmus obliquus were grown heterotrophically. After centrifugation (10 min, 5000×g) the pellet we re-suspended in 200 ml TAP medium. The cells were anaerobically adapted by flushing the solution with argon for 1 hour in the dark. All further purification steps were performed in an anaerobic chamber (Coylab, Ann Arbor, Mich., USA). The cells were disrupted in a 50 mM Tris/HCl, buffer pH 8.0, 10 mM sodium dithionite by vortexing 3 min with glass beads. The further purification steps were made as described hereinbelow for the isolation of the Fe-hydrogenase of Chlamydomonas reinhardti. Automated Edman degradation of the N-terminal site of the protein was performed with an Applied Biosystem model 477A sequencer with online analysator model 120 A.
The N-terminal sequence of HydA was determined by Edman degradation.

[2] = test system: iron hydrogenase from C. reinhardtii; assay: as above; parameters: species or system Chlamydomonas reinhardtii
Description: Hydrogenase activity of C. reinhardtii was determined in vitro with reduced methyl viologen using a gas chromatograph (Hewlett Packard 5890 Å Series II, column: molecular Sieve 5 Å, Mesh 60/80). The assay, containing in a final volume of 2 mL Pipes pH 6.8 (20 mM), Na2S2O4 (20 mM), MV (5 mM), was incubated anaerobically at 25° C. for 20 min. One unit is defined as he amount of hydrogenase evolving 1 μmol H2 per minute.
Cells from a 40-L culture of C. reinhardtii were harvested by ultra filtration through an Amicon Ultrafiltration System DC 10 LA, with a hollow-fiber filter. The pellet was resuspended in 200 mL TAP medium. After anaerobic adaptation by flushing the solution with argon for 1 h in the dark, all steps were performed under strictly anaerobic conditions. The isolated Fe-hyrogenase was chemically cleaved by cyanogen brormide (CNBr). After separation of he CNBr fragments on an SDS polyacrylamide gel, four peptides were blotted onto a poly(vinylidene difluoride) membrane and were sequenced. Automated Edman degradation was performed with an Applied Biosystem model 477 A sequencer with online analysator model 120 A.
To verify that the hydA ORF encodes the Fe-hydrogenase of C. reinhardtii, the enzyme was purified according to Happe and Naber (Eur. J. Biochem. 214,475-481 (1993)). The purified protein was able to evolve hydrogen, when incubated with reduced methyl viologen. After proteolytic digestion with cyanogen bromide, four bands of 4, 8, 9 and 11 kDa were detected after SDSIPAGE separation (data not shown). Two fragments (9 and 11 kDa) were sequenced by Edman degradation. […] The two fragment sequences are identical with he deduced amino-acid sequence of hydA (sequences are shadowed in gray in FIG. 6). The fragment corresponding to the cDNA region between 158 and 1636 bp of hydA was NdeI-BamHI cloned into the expression vector pET9a. The heterologous expressed protein was detected using antibodies raised against the Fe-hydrogenase. Both the purified Fe-hydrogenase of C. reinhardtii and the overexpressed enzyme had the same size (47.5 kDa). […] (ibid) who also detected no H2-production of the recombinant expressed Fe-hydrogenase from Desulfovibrio vulgaris in E. coli cells. An explanation might be the inability of E. coli to assemble the unique active site of the Fe-hydrogenases. It is known that E. coli has only three NiFe-hydrogenases with a different maturation system for the catalytic center.

hydrogenase activity = assay: In vivo hydrogenase activity (H2 evolution) of anaerobically adapted cells in the presence of inhibitors of the photosynthetic electron flow; type: cell-based, Scenedesmus obliquus; details: for Effect on H2 photoproduction / hydrogenase activity (in words): S. obliquus cells after anaerobic adaptation
Description: (§2) The in vivo activity in the presence of different inhibitors of the photosynthetic electron flow was determined as described by Happe et al., in: European Journal of Biochemistry, 214, 475-481 (1993). After anaerobic adaptation, algal cells were harvested, diluted in fresh Tris acetate phosphate medium, and transferred to sealed tubes. Inhibitors were added 1 hour before H2 evolving activity was measured. Cells were broken by sonification. […] Ferrodoxin of both C. reinhardtii and S. obliquus was isolated according to the method of Schmitter et al. (Eur. J.l of Biochem., 172, pages 405-412 (1988)).
Hydrogenase activity was determined in intact and broken cells after anaerobic adaptation. […] This rate corresponds to 85% of the oxygen evolution measure with intact Scenedesmus cells.
In S. obliquus, the hydrogen evolution is linked to the photosynthetic electron transport chain through PSI. […] With reference to Table II, after anaerobic adaptation, cells were harvested, diluted in fresh, TAP medium, and incubated with inhibitors as described herein. α-PetF-antibody was raised against spinach ferredoxin. In Table II, DCMU=3-(3,4-dichlorophenyl)-1,1-dimethylurea; DBMIB=2,5-dibromo-3-methyl-6 isopropyl-p-benzochinone; Sulfo-DSPD=sulfodisalicylidinepropanediamin; DCPIP=2,6-dichlorophenolindophenol. The electron transport from PSI to ferredoxin was inhibited using the artificial electron acceptor DCPIP. In this reaction, DCPIP is reduced instead of ferredoxin and electron transfer to hydrogenase is interrupted.

H2-evolution = details: C. reinhardtii, stated as known; cited from earlier work
[3] = test system: purified S. obliquus hydrogenase; assay: Electron transfer properties of electron donors measured in vitro with dithionite as reducing reagent; type: biochemical, Scenedesmus obliquus; details: for H2-evolving activities: ferredoxin as electron donor, dithionite as reducing reagent
Description: as §1, §2
The electron transfer properties of different plant-type ferredoxins were measured in vitro with dithionite as a reducing reagent. […] In this assay, H2-evolving activities of 420, 390 and 350 U/mg protein with S. obliquus, C. reinhardtii and spinach ferredoxin, respectively, were observed. […] In D. desulfuricans, the Fe-hydrogenase has been reported to catalyze both hydrogen production and uptake with low potential multiheme cytochromes such as cytochrome c3.

[4] = Hydrogenase activity of lysate of induced E. coli cells expressing S. obliquus hydA; type: cell-based, Escherichia coli
[5] = Hydrogenase activity of lysate of induced E. coli cells expressing C. reinhardtii hydA; type: cell-based, Escherichia coli; details: lysate of the induced E. coli cells
Description: The hydA gene, corresponding to amino acids 57-497, was amplified, confirmed by sequences analysis and cloned into corresponding sites of he pET9a expression vector (Promega). The constructed plasmid was then ransformed into E. coli strain BL21(DE3). After induction with 1 mM isopropyl-thio-β-D-galactoside, the cells were resuspended in lysis buffer. Crude extracts from C. reinhardtii were isolated by harvesting cells after indicated anaerobic adaptation times. The pellet was resuspended in solubilization buffer and incubated with vigorous vortexing at RT for 30 min. The protein extracts from C. reinhardtii and E. coli were separated by 12% SDS/PAGE and blotted onto a poly(vinylidenedifluoride) membrane. Affinity-purified antibodies were diluted 1:200 and used for Western blot analyses.
To verify that the hydA ORF encodes the Fe-hydrogenase of C. reinhardtii, the enzyme was purified according to Happe and Naber (Eur. J. Biochem. 214,475-481 (1993)). […] After proteolytic digestion with cyanogen bromide, four bands of 4, 8, 9 and 11 kDa were detected after SDSIPAGE separation (data not shown). […] The heterologous expressed protein was detected using antibodies raised against the Fe-hydrogenase. […] (ibid) who also detected no H2-production of the recombinant expressed Fe-hydrogenase from Desulfovibrio vulgaris in E. coli cells. […]

[6] = broken cells, inhibitor 10^−5 M
[7] = intact cells, inhibitor 10^−5 M, added 1 hour before measurement
[8] = broken cells, inhibitor 10^−4 M
[9] = methyl viologen, read-out: KM value (MV)

## [C-]#[O+] [CO]
[1]
  Inhibition of the enzyme (in words): strongly inhibited
[2]
  Inhibition of the enzyme (in words): strongly inhibited

## CC1=C(Br)C(=O)C(C(C)C)=C(Br)C1=O [DBMIB, 2,5-dibromo-3-methyl-6 isopropyl-p-benzochinone]
Hydrogenase activity
  Effect on H2 photoproduction / hydrogenase activity (in words): inhibition of the H2-production
Hydrogenase activity; [6]
  Hydrogenase activity: 0.006 Units/mg chlorophyll
Hydrogenase activity; [7]
  Hydrogenase activity: 0.005 Units/mg chlorophyll
H2-evolution
  Effect on H2 photoproduction (in words): no H2-evolution

## CN(C)C(=O)Nc1ccc(Cl)c(Cl)c1 [DCMU, 3-(3,4-dichlorophenyl)-1,1-dimethylurea]
Hydrogenase activity
  Effect on H2 photoproduction / hydrogenase activity (in words): still able to photoproduce hydrogen; also recorded: not influenced
Hydrogenase activity; [6]
  Hydrogenase activity: 0.11 Units/mg chlorophyll
Hydrogenase activity; [7]
  Hydrogenase activity: 0.10 Units/mg chlorophyll
H2-evolution
  Effect on H2 photoproduction (in words): still able to photoproduce hydrogen

## O=C1C(Cl)=CC(=Nc2ccc(O)cc2)C=C1Cl [DCPIP, 2,6-dichlorophenolindophenol]
Hydrogenase activity; [8]
  Hydrogenase activity: 0.003 Units/mg chlorophyll

## NC(=O)C1=CN([C@@H]2O[C@H](COP(=O)(O)OP(=O)(O)OC[C@H]3O[C@@H](n4cnc5c(N)ncnc54)[C@H](OP(=O)(O)O)[C@@H]3O)[C@@H](O)[C@H]2O)C=CC1 [NADPH, reference compound]
[3]; in vitro, purified S. obliquus hydrogenase
  Hydrogen production with other possible electron donors (in words): No hydrogen production

## O=O [O2]
[1]
  Inhibition of the enzyme (in words): strongly inhibited
[1]; listed as oxygen
  Inhibition of the enzyme (in words): irreversibly inactivated
[2]
  Inhibition of the enzyme (in words): strongly inhibited

## C. reinhardtii ferredoxin: plant-type [2Fe-2S] ferredoxin isolated from C. reinhardtii
[3]
  H2-evolving activities: 390 U/mg protein

## spinach ferredoxin: plant-type [2Fe-2S] ferredoxin of spinach
[3]
  H2-evolving activities: 350 U/mg protein

## sulfodisalicylidinepropanediamin [sulfo-DSPD]
Hydrogenase activity
  Effect on H2 photoproduction / hydrogenase activity (in words): specifically blocked
Hydrogenase activity; S. obliquus, Table II
  Reduction of hydrogenase activity: up to 30 fold
Hydrogenase activity; [8]
  Hydrogenase activity: 0.003 Units/mg chlorophyll

B1: S. obliquus iron hydrogenase: monomeric iron hydrogenase (HydA) of 44.5 kDa from Scenedesmus obliquus, SEQ. ID. NO. 4; recombinant form expressed in E. coli (protein, listed as Scenedesmus obliquus)
chain: MPEWQPGGRYAVSVRPPVNRRAVVAAERRRLVVRAAGPTAECDCPPAPAPKAPHWQQTLDELAKPKEQRKVMIAQIAPAVRVAIAETMGLNPGDVTVGQMVTGLRMLGFDYVFDTLFGADLTIMEEGTELLHRLQDHLEQHPNKEEPLPMFTSCCPGWVAMVEKSNPELIPYLSSCKSPQMMLGAVIKNYFAAEAGAKPEDICNVSVMPCVRKQGEADREWFNTTGAGGANVDHVMTTAELGKIFVERGIKLNDLQETPFDNPVGEGSGGVLFGTTGGVMEAALRTVYEVVTQKPLDRIVFEDVRGLEGIKESTLHLTPGPTSPFKAFAGADGTGITLNIAVANGLGNAKKLIKQLAAGESKYDFIEVMACPGGCIGGGGQPRSADKQILQKRQAAMYDLDERAVIRRSHENPLIGALYEKFLGEPNGHKAHELLHTHYVAGGVPDEK
[1]; [9]
  Km: 800 µM
[1]; purified enzyme
  Specific activity: 700 U/mg protein
  pI value: 5.17
[4]
  Hydrogenase activity of lysate (in words): no hydrogenase activity

B2: C. reinhardtii iron hydrogenase: Fe-hydrogenase HydA from Chlamydomonas reinhardtii, mature polypeptide of 441 amino acids, SEQ. ID. NO. 5 precursor (protein)
chain: AAPAAEAPLSHVQQALAELAKPKDDPTRKHVCVQVAPAVRVAIAETLGLAPGATTPKQLAEGLRRLGFDEVFDTLFGADLTIMEEGSELLHRLTEHLEAHPHSDEPLPMFTSCCPGWIAMLEKSYPDLIPYVSSCKSPQMMLAAMVKSYLAEKKGIAPKDMVMVSIMPCTRKQSEADRDWFCVDADPTLRQLDHVITTVELGNIFKERGINLAELPEGEWDNPMGVGSGAGVLFGTTGGVMEAALRTAYELFTGTPLPRLSLSEVRGMDGIKETNITMVPAPGSKFEELLKHRAAARAEAAAHGTPGPLAWDGGAGFTSEDGRGGITLRVAVANGLGNAKKLITKMQAGEAKYDFVEIMACPAGCVGGGGQPRSTDKAITQKRQAALYNLDEKSTLRRSHENPSIRELYDTYLGEPLGHKAHELLHTHYVAGGVEEKDEKK
[2]; ferredoxin, read-out: KM value (ferredoxin)
  Km: 35 µM
[2]; [9]
  Km: 830 µM
[2]; purified enzyme
  Specific activity: 935 U/mg protein
  pI value: 5.3
[5]
  Hydrogenase activity of lysate (in words): No hydrogenase activity
